Test results from ChEMBL document CHEMBL5500322, “The significance of persisters in tuberculosis drug discovery: Exploring the potential of targeting the glyoxylate shunt pathway” (Eur J Med Chem, 2024).
Converted amounts (≈) assume the structure as drawn.

Key:
[1] = tested on: Mycobacterium tuberculosis; test: Antimycobacterial activity against Mycobacterium tuberculosis assessed as reduction in bacterial growth; assay type: functional
[2] = tested on: Mycobacterium tuberculosis; test: Inhibition of Mycobacterium tuberculosis isocitrate lyase at 0.05 microg/ml relative to control; conditions: dose 0.05 µg/ml
[3] = tested on: Mycobacterium tuberculosis; test: Antibacterial activity against Mycobacterium tuberculosis H37Rv (ATCC 27294) assessed as bacterial growth inhibition incubated for 7 days by microdilution alamarBlue assay; assay type: functional; conditions: 168 h, time 7 day
[4] = Inhibition of N-terminal His-tagged isocitrate lyase (unknown origin) expressed in Escherichia coli BL21 (DE3)
Escherichia coli = test: Antibacterial activity against Escherichia coli assessed as reduction in bacterial growth; assay type: functional, organism-based
[5] = Binding affinity to indigofera isocitrate lyase assessed as inhibition of constant; set-up: species or system Vogesella indigofera
[6] = Inhibition of Mycobacterium tuberculosis isocitrate lyase
[7] = Inhibition of N-terminal His-tagged Mycobacterium tuberculosis malate synthase expressed in Escherichia coli BL21 (DE3)
[8] = tested on: Mycobacterium tuberculosis; test: Binding affinity to Mycobacterium tuberculosis isocitrate lyase assessed as inactivation constant
[9] = Binding affinity to Mycobacterium tuberculosis Malate synthase assessed as inhibition constant
[10] = tested on: Mycobacterium tuberculosis; test: Antimycobacterial activity against Mycobacterium tuberculosis H37Rv assessed as inhibition of bacterial growth incubated for 24 hrs by alamar blue assay; assay type: functional
[11] = tested on: Mycobacterium tuberculosis; test: Inhibition of Mycobacterium tuberculosis malate synthase at 1 uM relative to control
[12] = tested on: Mycobacterium tuberculosis; test: Antimycobacterial activity against Mycobacterium tuberculosis H37Rv assessed as reduction in bacterial growth measured after 7 days by broth dilution method; assay type: functional; conditions: 168 h, time 7 day

Nc1ccc(C(=O)O)c(O)c1 [AMINOSALICYLIC ACID]
MIC [1]: ≥ 125 µM

COc1ccc2cc(CCC(=O)CC(Nc3ccc(C(=O)O)cc3)c3ccc(Cl)cc3)ccc2c1 (centres undefined)
inhibition [2]: 57.4%

COC(=O)/C=C/C(=O)c1ccc(OC)cc1
MIC [3]: 0.25 µg/mL (≈ 1.14 µM) | IC50 ([4]; read-out: IC50): 30.9 µM

O=C(O)C(=O)CBr [BROMOPYRUVATE]
IC50 (Escherichia coli): 3 µM

C=C(CC(=O)O)C(=O)O [ITACONATE]
Ki [5]: 120 µM

CCCCCCCCCCCCC(=O)NNC(=O)c1c(O)c2ccccc2n(CC)c1=O
IC50 [6]: 134.4 µg/mL (≈ 303 µM)

O=C(O)/C(O)=C/C(=O)c1ccccc1
IC50 [7]: 2 µM

O=C(O)[C@H]1O[C@H]1C(=O)O
Kinact [8]: 0.01 10^3/M.s

C=C(OP(=O)(O)O)C(=O)O [PHOSPHOENOLPYRUVATE]
Ki [9]: 200 µM

O=c1ccc2ccc(O)c(O)c2o1 [DAPHNETIN]
MIC [10]: 128 µg/mL (≈ 719 µM) | IC50 [4]: 4.34 µg/mL

O=C(O)CC[N+](=O)[O-]
Ki [5]: 120 µM

O=C(O)CC(O)C(=O)O (centres undefined)
inhibition [11]: 50%

O=C(O)C(=O)O [OXALIC ACID]
Ki [9]: 400 µM

O=C(O)[C@@H](C[N+](=O)[O-])[C@@H](O)C(=O)O
Kinact [8]: 1.3 10^3/M.s

O=CC(=O)O [GLYOXYLATE]
Ki [9]: 900 µM

Nc1ccc(S(=O)(=O)Nc2nccs2)cc1 [SULFATHIAZOLE]
MIC [1]: ≥ 125 µM

COc1ccc2c(c[n+](C)c3c4cc5c(cc4ccc23)OCO5)c1OC [CHELERYTHRINE]
MIC [12]: 8 µg/mL
